These results are taken from patent US4175544A, “Iodo-aryl carbonates for use in methods in radiography” (Lafayette Pharmacal Inc., priority 1978, dated 1979).

Molecules are shown by their SMILES.

In data set [1] the test system is lymph nodes (popliteal and iliac). The conditions noted are these: dog, in vivo.
Experimental: Four iodinated organic carbonates prepared as described hereinabove were evaluated for use as lymphographic agents in laboratory dogs.
Six adult mongrel dogs, preconditioned for at least two weeks at the Lafayette Pharmacal, Inc. facilities, were used for the study. The dogs were removed from food the evening prior to dosing. Each animal was first anesthetized with Rompun and sodium pentobarbital and intubated to assist in breathing. A standard lymphogram was then performed on one rear leg only of each animal using known laboratory procedures. Specifically, a blue dye was first injected between the toes of the right hind limb to locate the lymph ducts. A single duct was then disected out and cannulated. One of the six compounds was then selected and a syringe pump used to inject the test compound into the duct at a constant rate. In this regard, the dogs were injected with an effective amount of one (1) cc of test substance per 20 lbs. of body weight. The iodinated phenyl compounds were brought to about body temperature prior to the injecting and then were injected while at about the body temperature.
Radiographs were then taken of each animal after confirming the location of the injected bolus by fluoroscopy means. The animals were given atropine sulfate and observations made while they were allowed to recover from the anesthetic unassisted.
The animals were then returned to their cages and radiographs were taken at the end of 24 hours, 3 days and 1, 2, 3, 4 and 6 weeks to determine the radiographic clearance rate of each tested compound. Daily urine samples were also collected and subjected to fluorescent exitation analysis to determine the urinary clearance rate for each compound. Six weeks after the initial lymphogram, the animals were sacrificed and the popliteal and iliac nodes on both sides removed. The nodes from the dosed side and undosed side of each animal were then compared histopathologically.
The subject of data set [2] is albino mice. Put plainly: Initial toxicity screen: Approximate Lethal Dose by intraperitoneal injection (Deichmann and LeBlanc). The data set is classed as in vivo. The conditions noted are these: for Approximate Lethal Dose (ALD): intraperitoneal, albino mice, neat liquid or suspension, footnote (b): largest dose administered (e, f, i, p, q). How it is done:
As an initial toxicity screen for the compounds shown hereinabove, the neat liquid or suspension of the material was injected into the peritoneal cavity of albino mice and the Approximate Lethal Dose (ALD) determined using the method of Deichmann and LeBlanc (W. B. Deichmann and T. J. LeBlanc, J. Ind. Hyg., 25, 415 (1943)) the results of which are presented in Table II, as set forth hereinafter.
Approximate Interperitoneal Toxicity in Mice
Approximate Lethal Dose Ml/Kg

A further data set has as its system brain and spinal cord. Put plainly: Suboccipital study of laboratory animals (neurotoxicity, brain and spinal cord histopathology). The data set is classed as in vivo, laboratory rats. As to conditions: rat; for Overall / histopathological response: 0.1 ml suboccipital injection, 1 to 14 weeks; for Difficulty with righting responses / Recovery from the injection procedure: suboccipital injection; for Recovery from the injection procedure: as a group; for Lipid puddle formation: compared with air and Pantopaque. How it is done: Six iodinated phenyl carbonate compounds prepared as described above, as well as air and Pantopaque, a known prior art radiographic compound, were injected suboccipitally into separate groups of 30 laboratory rats. The six iodinated compounds under examination were p-iodobenzyl-n-hexyl carbonate, p-iodobenzyl-n-octyl carbonate, p-iodobenzyl-2-octyl carbonate, 2-ethylhexyl-p-iodobenzyl carbonate, n-hexyl-3-(p-iodophenyl)propyl carbonate and n-hexyl-2-(p-iodobenzyl)butyl carbonate. Six rats from each injected group were then sacrificed at periodic intervals and the brain and spinal cord removed for histopathological evaluation. By comparing the results of air and Pantopaque with the results using the iodinated compounds, an evaluation of their relative neurotoxicity was obtained.
The groups of rats were first subjected to standard quarantine procedure at the Lafayette Pharmacol, Inc. facilities for at least two weeks prior to dosing. About 18 hours prior to dosing, food was withdrawn but water was allowed ad lib. During injection, each animal was anesthetized in an ether chamber and the back of the neck closely clipped. After placing the animal on a board with the head declined at 45°, a puncture was made just at the base of the atlas and 0.1 ml. of the selected test substance was injected. Radiographs were then taken immediately after dosing to confirm the intrathecal location of the injected bolus, and the animals were returned to their cages for observation.
One group of six animals for each tested substance was then sacrificed at the following elapsed times post injection: 1 week; 2 weeks; 4 weeks; 8 weeks and 14 weeks. At sacrifice, the animal were perfused with saline and formalin. Each animal was again radiographed and the brain and spinal cord then removed and stored for histopathological study.

Data set [3] deals with albino mice. Briefly: Initial toxicity screen: Approximate Lethal Dose by intraperitoneal injection (Deichmann and LeBlanc). The conditions noted are these: 20% w/v in Sesame oil, for r also footnote (b): largest dose administered. The data set is classed as in vivo.
Data set [4] has as its system lung. Put plainly: Bronchography study of laboratory animals (insuflation of a caudal lobe of one lung). As to conditions: dog, dosed lobe, 2 weeks.
Experimental: (§1) Food was withdrawn from each animal 12 hours prior to dosing with water given ad lib. The animals were then first anesthetized with sodium pentobarbital and maintained on halothane. Each animal was then intubated with a tracheal tube and scouting X-ray films were taken to confirm its position. Next, a stainless steel guide wire was passed through a polypropylene tube, i.e., insuflation tube, and this combination was passed into the animal's lung. The position of this guide wire was then confirmed by fluoroscopy and the guide wire then removed, thus leaving the insulfation tube in place.
(§2) In this regard, the amount of selected iodinated phenyl carbonate compound varied for each animal according to weight, with 6 cc being given to the heaviest test dog. Oxygen at 20 psi was then used to insuflate a caudal lobe of one lung of each animal while monitoring with fluoroscopy. Lateral and direct view radiographs were then taken. […] Food was then given after 12 hours.
(§3) At 2 weeks, the animals were then anesthetized and radiographs taken while the lungs were expanded by air insuflation. The animals were then sacrificed by injection of saline and the dosed lobe of each animal examined histopathologically and compared with the corresponding undosed lobe.
In data set [5] the test system is lung. The conditions noted are these: dog, in vivo.
Experimental: as §1, §2, §3

On to `CCCCOC(=O)SCc1ccc(I)cc1` [S-(p-iodobenzyl)-n-butyl thiolcarbonate], for which, in data set [1], the “Histopathology of dosed nodes” value is “mild granulomatous lymphadenitis or lipoidal lymphadenopathy”; the “Overall result after six weeks” value was “excellent overall results with only minor histopathological responses”; the “Rate of clearance and elimination (order, fastest to slowest)” value (“Rate of clearance and elimination” below) is given as “almost the same”; the “Time to radiographically clear” value is given as ≤ 6 weeks.
Regarding `CC(C)COC(=O)OCc1ccc(I)cc1` [a, p-Iodobenzyl Isobutyl Carbonate], in the data set with albino mice [2], the “Approximate Lethal Dose (ALD)” value amounted to 3 mL/kg.
As for `CCCCCOC(=O)OCc1ccc(I)cc1` [b, n-Amyl-p-Iodobenzyl Carbonate], in the data set on albino mice [2], the “Approximate Lethal Dose (ALD)” value is 3 mL/kg.
In the case of `CCCCCCOC(=O)OCc1ccc(I)cc1` [c, n-Hexyl-p-Iodobenzyl Carbonate], the “Approximate Lethal Dose (ALD)” value with albino mice [2] amounted to 7 mL/kg. In data set [1], the “Rate of clearance and elimination” value is “p-iodobenzyl-n-butyl carbonate, p-iodobenzyl-n-hexyl carbonate, p-iodobenzyl-n-octyl carbonate and ethiodol”; the “Time to radiographically clear” value is listed as ≤ 6 weeks. Besides, in the data set on brain and spinal cord, the “Overall / histopathological response” value was “Relatively more severe histopathological responses”, the “Difficulty with righting responses” value is given as “more animals exhibiting righting difficulty” and the “Recovery from the injection procedure” value is “taking longer to recover”.
Take `CC(C)CC(C)OC(=O)OCc1ccc(I)cc1` (stereo not drawn) [d, p-Iodobenzyl-4-methyl-2-Pentyl Carbonate]: the “Approximate Lethal Dose (ALD)” value with albino mice [2] turned out to be 7 mL/kg.
Take `CCCCCCCCOC(=O)OCc1ccc(I)cc1` [e, n-Octyl-p-Iodobenzyl Carbonate]: in the data set on albino mice [2], the “Approximate Lethal Dose (ALD)” value worked out at 15 mL/kg. For the same compound, in data set [1], the “Histopathology of dosed nodes” value is “mild granulomatous lymphadenitis or lipoidal lymphadenopathy”, the “Overall result after six weeks” value is recorded as “excellent overall results with only minor histopathological responses”, the “Radiographic state of iliac node” value is listed as “small droplets could be seen” and the “Radiographic state of popliteal node” value is recorded as “clear”. In addition, in data set [1], the “Rate of clearance and elimination” value was “p-iodobenzyl-n-hexyl carbonate, p-iodobenzyl-n-octyl carbonate and ethiodol”. Moreover, in the data set with brain and spinal cord, the “Overall / histopathological response” value was “overall responses close to air and Pantopaque approximating normal”; the Lipid puddle formation entry was “slightly more lipid puddle formation”; the “Difficulty with righting responses” value is “an occasional animal showing some difficulty with righting responses”.
For `CCCCCCCCCCOC(=O)OCc1ccc(I)cc1` [f, n-Decyl-p-Iodobenzyl Carbonate], the “Approximate Lethal Dose (ALD)” value in the data set on albino mice [2] is 10.5 mL/kg.
Regarding `CCCCC(CC)COC(=O)OCc1ccc(I)cc1` (stereo not drawn) [g, 2-Ethylhexyl-p-Iodobenzyl Carbonate], the “Approximate Lethal Dose (ALD)” value in the data set on albino mice [2] was 15 mL/kg. Also, in the data set with brain and spinal cord, the “Overall / histopathological response” value is listed as “Relatively more severe histopathological responses”, the “Difficulty with righting responses” value is on record as “more animals exhibiting righting difficulty” and the “Recovery from the injection procedure” value is “taking longer to recover”.
Turning to `CCCC(CC)OC(=O)OCc1ccc(I)cc1` (stereo not drawn) [h, 3-Hexyl-p-Iodobenzyl Carbonate], the “Approximate Lethal Dose (ALD)” value in the data set on albino mice [2] was found to be 3 mL/kg.
For `CCCCCCC(C)OC(=O)OCc1ccc(I)cc1` (stereo not drawn) [i, 2-Octyl-p-Iodobenzyl Carbonate], the “Approximate Lethal Dose (ALD)” value in the data set with albino mice [2] was 15 mL/kg. In the data set with brain and spinal cord, the “Overall / histopathological response” value was “Relatively more severe histopathological responses”, the “Difficulty with righting responses” value is given as “more animals exhibiting righting difficulty” and the “Recovery from the injection procedure” value was “taking longer to recover”.
As for `CCCCCCOC(=O)Oc1ccc(I)cc1` [j, n-Hexyl-p-Iodophenyl Carbonate], the “Approximate Lethal Dose (ALD)” value with albino mice [2] was determined as 7 mL/kg.
For `CCCCCCCCOC(=O)Oc1ccc(I)cc1` [k, n-Octyl-p-Iodphenyl Carbonate], the “Approximate Lethal Dose (ALD)” value with albino mice [2] was determined as 7 mL/kg.
Consider `CCCCCCOC(=O)OC(C)c1ccc(I)cc1` (stereo not drawn) [l, n-Hexyl-p-Iodo-sec-Phenethyl Carbonate], for which the “Approximate Lethal Dose (ALD)” value in the data set with albino mice [2] turned out to be 10.5 mL/kg.
Same read-out and setting: to `CCCCCCOC(=O)OCCc1ccc(I)cc1` [m, n-Hexyl-p-Iodophenethyl Carbonate] belongs 7 mL/kg.
On to `CCCCCCOC(=O)OCCCc1ccc(I)cc1` [n, n-Hexyl-3-(p-Iodophenyl)Propyl Carbonate], for which, in the data set with albino mice [2], the “Approximate Lethal Dose (ALD)” value worked out at 15 mL/kg. Further, in the data set with brain and spinal cord, the “Overall / histopathological response” value was “Relatively more severe histopathological responses”, the “Difficulty with righting responses” value was “more animals exhibiting righting difficulty” and the “Recovery from the injection procedure” value is listed as “taking longer to recover”.
In the case of `CCCCCCOC(=O)OCCC(C)c1ccc(I)cc1` (stereo not drawn) [o, n-Hexyl-3-(p-Iodophenyl)Butyl Carbonate], in the data set on albino mice [2], the “Approximate Lethal Dose (ALD)” value came out at 7 mL/kg.
For the compound `CCCCCCOC(=O)OCC(CC)Cc1ccc(I)cc1` (stereo not drawn) [p, n-Hexyl-2-(p-Iodobenzyl)Butyl Carbonate], the “Approximate Lethal Dose (ALD)” value in the data set on albino mice [2] is reported as “greater than 15 Ml/Kg”. For the same compound, in the data set on brain and spinal cord, the “Overall / histopathological response” value is “overall responses close to air and Pantopaque approximating normal”; the Lipid puddle formation result is on record as “slightly more lipid puddle formation”; the “Difficulty with righting responses” value was “an occasional animal showing some difficulty with righting responses”.
Consider `CCOC(=O)OCc1ccc(I)cc1` [p-iodobenzyl ethyl carbonate], for which, in data set [1], the Clearance of nodes is ~3 days; the “Histopathology of dosed nodes” value is “no change in the nodes”; the “Overall result after six weeks” value was “indistinguishable from undosed animals”; the “Rate of clearance and elimination” value is “fastest”.
On to `CCCCOC(=O)OCc1ccc(I)cc1` [p-iodobenzyl-n-butyl carbonate], for which, in data set [1], the “Histopathology of dosed nodes” value was “no change in the nodes”; the “Overall result after six weeks” value is given as “indistinguishable from undosed animals”; the “Rate of clearance and elimination” value is “almost the same”; the “Time to radiographically clear” value is given as ≤ 6 weeks.
Regarding `CCCCCCOC(=O)OCC(CCCC)Cc1ccc(I)cc1` (stereo not drawn) [q, n-Hexyl-2-(p-Iodobenzyl)-n-Hexyl Carbonate], in the data set on albino mice [2], the “Approximate Lethal Dose (ALD)” value is on record as “greater than 15 Ml/Kg”.
Take `CCCCCCOC(=O)OCc1c(I)cc(I)c(N)c1I` [r, 3-Amino-2,4,6-Triiodobenzyl-n-Hexyl Carbonate]: the “Approximate Lethal Dose (ALD)” value with albino mice [3] is “greater than 11 Ml/Kg”.
As for `CCCCCCOC(=O)OCc1cc(I)cc(I)c1` [s, 3,5-Diiodobenzyl-n-Hexyl Carbonate], the “Approximate Lethal Dose (ALD)” value with albino mice [2] was 5 mL/kg.
Regarding `CCCCCCCCOC(=O)OCc1cccc(I)c1` [t, m-Iodobenzyl-n-Octyl Carbonate], the “Approximate Lethal Dose (ALD)” value in the data set on albino mice [2] was “greater than 17 Ml/Kg”.
With `CCOC(=O)OCc1c(I)cc(I)c(NC(C)=O)c1I` [u, 3-acetamido-(2,4,6-triiodobenzyl)ethyl carbonate], the “Gross lesions related to instillation” value in the data set on lung [4] is listed as “No gross lesions were found that appeared specifically related to instillation of the contrast medium”. For the same compound, in the data set with lung [5], the “Histopathological alterations of dosed lobes” value was “obliterative granulomatous bronchiolitis”; the “Persistence of compound in lung” value is “some evidence the iodinated phenyl carbonate had persisted and was responsible for this granulomatous bronchiolitis”. The “Approximate Lethal Dose (ALD)” value in the data set on albino mice [3] is “greater than 22 Ml/Kg”.
On to `COC(=O)OC(C)c1ccc(I)cc1` (stereo not drawn) [v, p-Iodo-sec-Phenethyl Methyl Carbonate, reference compound], for which, in the data set on albino mice [2] (compared with the compounds of Table II), the “Intraperitoneal toxicity (in words)” value is “more toxic”. Besides, the “Approximate Lethal Dose (ALD)” value with albino mice [2] turned out to be 1.5 mL/kg.
